# Measured values as given in US20230042881A1, “MODULATORS OF INTEGRATED STRESS RESPONSE PATHWAY” (Praxis Biotech LLC, priority 2021, published 2023).
# Columns and labels:
# [1] = tested on: Chinese hamster ovary (CHO) cells; assay: Protein synthesis assay (puromycin incorporation, Western blot); type: cell-based; details: Cricetulus griseus; unstressed CHO cells (without Tg), 2 hours, 1 μM test compound; media alone = 100%; read-out: % Protein synthesis relative to untreated (1 μM test compound)
# Procedure: Chinese hamster ovary (CHO) cells were maintained at 37° C. and 5% CO2 in Dulbecco's Modified Eagle's Media (DMEM) supplemented with 10% fetal bovine serum, 2 mM L-glutamine, 100 U/ml penicillin, and 100 μg/ml streptomycin. After reaching 80% of confluence, cells were detached and seeded on 6 well plates in complete media, allowed to recover overnight and treated for 2 hours with 1 μM of the test compound (to assess protein synthesis levels in unstressed condition), or for 2 hours with 300 nM Tg in the presence of 1 μM of the test compound (to assess the recovery of protein synthesis in a stressed condition). Cells with Tg alone were used as controls.
# After the 2 hours treatments, media were replaced by adding 10 μg/ml puromycin (Sigma Aldrich #P8833) in complete media for 30 min. Media were removed and cells were lysed with SDS-PAGE lysis buffer. Lysates were transferred to 1.5 ml tubes and sonicated for 3 min and total protein amount were quantified using BCA Protein Assay Kit (Pierce). Equal amount of protein (30 μg) was loaded on SDS-PAGE gels.
# A HRP-conjugated secondary antibody (Rockland) was employed to detect immune-reactive bands using enhanced chemiluminescence (ECL Western Blotting Substrate, Pierce). Quantification of protein bands was done by densitometry using ImageJ software.
# The percentage levels were normalized to the media alone condition, which correspond to 100% protein synthesis. […]
# [2] = tested on: ATF4; assay: ATF4 expression inhibition assay (ATF4 5′UTR luciferase reporter, thapsigargin-stressed); type: cell-based; details: Homo sapiens, HEK-293T; HEK293T cells carrying ATF4 luciferase reporter, 100 nM thapsigargin (Tg), 3 hours at 37° C.; read-out: ATF4 inhibition
# Procedure: The ATF4 reporter was prepared by fusing the human full length 5′UTR of ATF4 (NCBI Accession No. BC022088.2) upstream of the firefly luciferase coding sequence lacking the initiator methionine. The fused sequence was cloned into pLenti-EF1a-C-Myc-DDK-IRES-Puro cloning vector (Origen #PS100085) using standard methods.
# HEK293T cells carrying the ATF4 luciferase reporter were plated on 96-well plates (Nunc) at 10,000 cells per well. Cells were treated two days after seeding with 100 nM thapsigargin (Tg) (Sigma-Aldrich #T9033) in the presence of different concentrations of selected compounds ranging from 0.1 nM to […]. Cells without treatment or cells treated with Tg alone were used as controls. Assay plates containing cells were incubated for 3 hours at 37° C.
# Luciferase reactions were performed using Luciferase Assay System (Promega #E1501) as specified by the manufacturer. Luminescence was read with an integration time of 1 s and a gain of 110 using a Cytation-5 multi-mode microplate reader (BioTek).
SMILES,IC50 [2] [nM],activity at 1 µM [1] [%]
"O=C(Nc1ccc2cc(Cl)ccc2n1)[C@H]1CC[C@H](C(=O)Nc2ccc3cc(Cl)ccc3n2)CC1 [Compound 17, trans-N^1,N^4-bis(6-chloroquinolin-2-yl)cyclohexane-1,4-dicarboxamide]",10 to 100,110
"O=C(COc1ccc(Cl)cc1)NN1CCC(C(=O)Nc2ccc3cc(Cl)ccc3n2)CC1 [Compound 18, 1-(2-(4-chlorophenoxy)acetamido)-N-(6-chloroquinolin-2-yl)piperidine-4-carboxamide]",< 10,75.6
"O=C(NN1CCC(C(=O)Nc2ccc3cc(Cl)ccc3n2)CC1)c1ccc2cc(Cl)ccc2n1 [Compound 19, 6-chloro-N-(4-((6-chloroquinolin-2-yl)carbamoyl)piperidin-1-yl)quinoline-2-carboxamide]",< 10,122
"O=C(CO[C@H]1C[C@@H](OC(F)(F)F)C1)N[C@H]1CC[C@H](C(=O)Nc2ccc3cc(Cl)ccc3n2)CC1 [Compound 24, trans-N-(6-chloroquinolin-2-yl)-4-(2-(cis-3-(trifluoromethoxy)cyclobutoxy)acetamido)cyclohexanecarboxamide]",< 10,99.3
"O=C(CO[C@H]1C[C@@H](OC(F)(F)F)C1)NN1CCC(C(=O)Nc2ccc3cc(Cl)ccc3n2)CC1 [Compound 25, N-(6-chloroquinolin-2-yl)-1-(2-((1s, 3s)-3-(trifluoromethoxy)cyclobutoxy)acetamido)piperidine-4-carboxamide]",< 10,96.1
"O=C(Nc1ccc2cc(Cl)ccc2n1)[C@H]1CC[C@H](C(=O)N[C@H]2C[C@@H](OC(F)(F)F)C2)CC1 [Compound 31, trans-N1-(6-chloroquinolin-2-yl)-N4-(cis-3-(trifluoromethoxy)cyclobutyl)cyclohexane-1,4-dicarboxamide]",10 to 100,88.3
"O=C(NN1CCC(C(=O)NCc2cc3cc(Cl)ccc3o2)CC1)c1ccc2cc(Cl)ccc2n1 [Compound 44, 6-chloro-N-(4-(((5-chlorobenzofuran-2-yl)methyl)carbamoyl)piperidin-1-yl)quinoline-2-carboxamide]",< 10,96.8
"O=C(NN1CCC(C(=O)NCc2cc3cc(Cl)ccc3o2)CC1)c1cc2cc(Cl)ccc2o1 [Compound 48, 1-(5-chlorobenzofuran-2-carboxamido)-N-((5-chlorobenzofuran-2-yl)methyl)piperidine-4-carboxamide]",< 10,109
"O=C(NCc1cc2cc(Cl)ccc2o1)C1CCN(NC(=O)C2CNc3cc(Cl)ccc3O2)CC1 (centres unmarked) [Compound 50, 6-chloro-N-(4-(((5-chlorobenzofuran-2-yl)methyl)carbamoyl)piperidin-1-yl)-3,4-dihydro-2H-benzo[b][1,4]oxazine-2-carboxamide]",10 to 100,85.1
"O=C(N[C@H]1CC[C@H](C(=O)NCC2CNc3cc(Cl)ccc3O2)CC1)c1ccc2cc(Cl)ccc2n1 (stereo partly drawn) [Compound 71, trans-6-chloro-N-(4-(((6-chloro-3,4-dihydro-2H-benzo[b][1,4]oxazin-2-yl)methyl)carbamoyl)cyclohexyl)quinoline-2-carboxamide]",< 10,174
"O=C(NN1CCC(C(=O)NCC2CNc3cc(Cl)ccc3O2)CC1)c1ccc2cc(Cl)ccc2n1 (centres unmarked) [Compound 72, 6-chloro-N-(4-(((6-chloro-3,4-dihydro-2H-benzo[b][1,4]oxazin-2-yl)methyl)carbamoyl)piperidin-1-yl)quinoline-2-carboxamide]",< 10,92.2
"O=C(N[C@H]1CC[C@H](C(=O)NCC2CNc3cc(Cl)ccc3O2)CC1)c1cc2cc(Cl)ccc2o1 (stereo partly drawn) [Compound 75, 5-chloro-N-(trans-4-(((6-chloro-3,4-dihydro-2H-benzo[b][1,4]oxazin-2-yl)methyl)carbamoyl)cyclohexyl)benzofuran-2-carboxamide]",< 10,114

# Further lines, with some results ahead:
IC50 [2] [nM],SMILES,activity at 1 µM [1] [%]
< 10,"O=C(COc1ccc(Cl)c(F)c1)N[C@H]1CC[C@H](C(=O)Nc2nc3cc(Cl)ccc3s2)CC1 [Compound 14, trans-4-(2-(4-chloro-3-fluorophenoxy)acetamido)-N-(5-chlorobenzo[d]thiazol-2-yl)cyclohexane-1-carboxamide]",105
10 to 100,"O=C(COc1ccc(Cl)c(F)c1)NC1CCN(C(=O)Nc2ccc3cc(Cl)ccc3n2)CC1 [Compound 15, 4-(2-(4-chloro-3-fluorophenoxy)acetamido)-N-(6-chloroquinolin-2-yl)piperidine-1-carboxamide]",177
< 10,"O=C(COc1ccc(Cl)c(F)c1)NN1CCC(C(=O)Nc2ccc3cc(Cl)ccc3n2)CC1 [Compound 16, 1-(2-(4-chloro-3-fluorophenoxy)acetamido)-N-(6-chloroquinolin-2-yl)piperidine-4-carboxamide]",133
10 to 100,"O=C(COc1ccc(Cl)c(F)c1)N[C@H]1CC[C@H](C(=O)NCc2ccc3cc(Cl)ccc3n2)CC1 [Compound 22, trans-4-(2-(4-chloro-3-fluorophenoxy)acetamido)-N-((6-chloroquinolin-2-yl)methyl)cyclohexanecarboxamide]",100
< 10,"O=C(COc1ccc(C(F)(F)F)cc1)N[C@H]1CC[C@H](C(=O)Nc2ccc3cc(Cl)ccc3n2)CC1 [Compound 35, trans-N-(6-chloroquinolin-2-yl)-4-(2-(4-(trifluoromethyl)phenoxy)acetamido)cyclohexanecarboxamide]",82.9
< 10,"O=C(COc1ccc(OC(F)(F)F)cc1)N[C@H]1CC[C@H](C(=O)Nc2ccc3cc(Cl)ccc3n2)CC1 [Compound 36, trans-N-(6-chloroquinolin-2-yl)-4-(2-(4-(trifluoromethoxy)phenoxy)acetamido)cyclohexanecarboxamide]",160
10 to 100,"O=C(COc1ccc(Cl)c(F)c1)N[C@H]1CC[C@H](C(=O)NCc2cc3cc(Cl)ccc3o2)CC1 [Compound 39, trans-4-(2-(4-chloro-3-fluorophenoxy)acetamido)-N-((5-chlorobenzofuran-2-yl)methyl)cyclohexanecarboxamide]",170
< 10,"O=C(COc1ccc(Cl)c(F)c1)NN1CCC(C(=O)NCc2cc3cc(Cl)ccc3o2)CC1 [Compound 40, 1-(2-(4-chloro-3-fluorophenoxy)acetamido)-N-((5-chlorobenzofuran-2-yl)methyl)piperidine-4-carboxamide]",121
< 10,"O=C(N[C@H]1CC[C@H](C(=O)NCc2cc3cc(Cl)ccc3o2)CC1)c1ccc2cc(Cl)ccc2n1 [Compound 43, 6-chloro-N-(trans-4-(((5-chlorobenzofuran-2-yl)methyl)carbamoyl)cyclohexyl)quinoline-2-carboxamide]",85.2
< 10,"O=C(N[C@H]1CC[C@H](C(=O)NCc2cc3cc(Cl)ccc3o2)CC1)c1cc2cc(Cl)ccc2o1 [Compound 47, 5-chloro-N-(trans-4-(((5-chlorobenzofuran-2-yl)methyl)carbamoyl)cyclohexyl)benzofuran-2-carboxamide]",103
10 to 100,"O=C(N[C@H]1CC[C@H](C(=O)NCc2cc3cc(Cl)ccc3o2)CC1)C1CNc2cc(Cl)ccc2O1 (stereo partly drawn) [Compound 49, 6-chloro-N-(trans-4-(((5-chlorobenzofuran-2-yl)methyl)carbamoyl)cyclohexyl)-3,4-dihydro-2H-benzo[b][1,4]oxazine-2-carboxamide]",122
< 10,"O=C(COc1ccc(Cl)c(F)c1)N[C@H]1CC[C@H](C(=O)NCC2CNc3cc(Cl)ccc3O2)CC1 (stereo partly drawn) [Compound 67, trans-N-((6-chloro-3,4-dihydro-2H-benzo[b][1,4]oxazin-2-yl)methyl)-4-(2-(4-chloro-3-fluorophenoxy)acetamido)cyclohexanecarboxamide]",109
< 10,"O=C(COc1ccc(Cl)c(F)c1)NN1CCC(C(=O)NCC2CNc3cc(Cl)ccc3O2)CC1 (centres unmarked) [Compound 68, N-((6-chloro-3,4-dihydro-2H-benzo[b][1,4]oxazin-2-yl)methyl)-1-(2-(4-chloro-3-fluorophenoxy)acetamido)piperidine-4-carboxamide]",98.3
